From patent US20190380978A1, “SOLID ORAL DOSAGE FORMS OF 2R,6R-HYDROXYNORKETAMINE OR DERIVATIVES THEREOF” (priority 2016, published 2019)

Key:
[1] = target: 5-HT1B (Homo sapiens, UniProt P28222); test: binding to 5-HT1B receptor
Source text: (§1) 2R,6R-hydroxynorketamine was investigated for binding to monoamine oxidases A and B, monoamine transporters, as well as a variety of 5HT receptors.

[2] = target: 5-HT2A (Homo sapiens, UniProt P28223); test: binding to 5-HT2A receptor
Source text: as §1

[3] = target: 5-HT2B (Homo sapiens, UniProt P41595); test: binding to 5-HT2B receptor
Chain of 5-HT2B (P41595 whole entry, species assumed): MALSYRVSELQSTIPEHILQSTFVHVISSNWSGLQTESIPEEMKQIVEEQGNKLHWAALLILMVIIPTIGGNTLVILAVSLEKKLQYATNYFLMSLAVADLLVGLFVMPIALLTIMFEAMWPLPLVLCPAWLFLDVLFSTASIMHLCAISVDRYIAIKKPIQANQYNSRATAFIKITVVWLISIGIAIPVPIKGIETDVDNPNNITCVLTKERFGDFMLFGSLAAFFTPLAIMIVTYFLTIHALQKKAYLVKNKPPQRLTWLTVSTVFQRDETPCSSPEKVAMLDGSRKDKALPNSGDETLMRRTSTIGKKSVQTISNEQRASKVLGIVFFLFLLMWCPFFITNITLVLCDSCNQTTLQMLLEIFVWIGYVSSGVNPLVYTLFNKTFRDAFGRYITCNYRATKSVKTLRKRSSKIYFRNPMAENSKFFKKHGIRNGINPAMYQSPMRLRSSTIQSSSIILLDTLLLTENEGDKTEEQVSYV
Source text: as §1

[4] = target: 5-HT transporter (Homo sapiens, UniProt P31645); test: binding to 5-HT transporter
Chain of 5-HT transporter (P31645 whole entry, species assumed): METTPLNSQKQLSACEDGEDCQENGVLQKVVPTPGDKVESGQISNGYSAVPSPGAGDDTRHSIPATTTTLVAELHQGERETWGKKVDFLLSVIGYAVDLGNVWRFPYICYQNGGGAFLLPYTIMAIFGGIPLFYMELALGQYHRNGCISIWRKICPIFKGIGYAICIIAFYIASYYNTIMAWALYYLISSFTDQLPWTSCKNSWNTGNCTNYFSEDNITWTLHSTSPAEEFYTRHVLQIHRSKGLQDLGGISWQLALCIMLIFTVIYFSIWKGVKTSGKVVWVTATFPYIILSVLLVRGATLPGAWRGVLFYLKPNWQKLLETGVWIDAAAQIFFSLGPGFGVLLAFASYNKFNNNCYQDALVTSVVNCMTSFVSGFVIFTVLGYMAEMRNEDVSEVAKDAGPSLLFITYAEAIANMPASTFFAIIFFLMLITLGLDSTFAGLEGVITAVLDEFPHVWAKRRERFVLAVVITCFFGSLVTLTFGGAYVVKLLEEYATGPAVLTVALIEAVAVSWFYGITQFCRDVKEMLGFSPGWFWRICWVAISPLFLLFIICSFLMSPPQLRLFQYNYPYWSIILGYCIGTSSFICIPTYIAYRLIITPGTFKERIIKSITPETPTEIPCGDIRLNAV
Source text: as §1

[5] = tested on: plasma binding proteins; test: fraction unbound in 100% plasma, rat; type: in vitro ADME
Source text: While the risk of DDIs due to displacement from plasma binding proteins (PPBs) is relatively low, it should be considered for drugs which display a high proportion PPB (fraction unbound (fu)<1%).
The fu was investigated for 2R,6R-hydroxynorketamine using a 100% plasma from 4 test species.

[6] = target: T1, CYP2C8 (Homo sapiens, UniProt P10632); test: CYP inhibition assay, CYP2C8; type: in vitro ADME
T1 sequence (P10632 1-490): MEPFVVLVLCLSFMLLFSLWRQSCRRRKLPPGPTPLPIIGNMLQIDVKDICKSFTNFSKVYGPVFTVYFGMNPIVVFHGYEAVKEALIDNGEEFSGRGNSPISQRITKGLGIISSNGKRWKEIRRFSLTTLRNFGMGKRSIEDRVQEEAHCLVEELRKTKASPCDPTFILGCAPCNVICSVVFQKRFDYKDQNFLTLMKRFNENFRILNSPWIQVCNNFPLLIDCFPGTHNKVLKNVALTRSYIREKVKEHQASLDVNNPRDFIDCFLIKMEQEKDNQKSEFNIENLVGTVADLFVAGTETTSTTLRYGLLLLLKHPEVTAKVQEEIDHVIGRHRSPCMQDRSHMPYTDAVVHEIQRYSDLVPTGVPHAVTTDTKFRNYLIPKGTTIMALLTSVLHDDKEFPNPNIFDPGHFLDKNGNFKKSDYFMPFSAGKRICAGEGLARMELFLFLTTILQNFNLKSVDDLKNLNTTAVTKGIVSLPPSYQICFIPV
Source text: (§2) Cytochrome P450s (CYPs) are a family of enzymes that play a primary role in the metabolism of a wide variety of drugs. 2R,6R-hydroxynorketamine was investigated for its potential to inhibit the action of 7 key CYP enzymes using an inhibition assay measuring reduction in the formation of metabolites compared to control.

[7] = target: T2, CYP1A2 (Homo sapiens, UniProt P05177); test: CYP inhibition assay, CYP1A2; type: in vitro ADME
T2 sequence (P05177 1-516): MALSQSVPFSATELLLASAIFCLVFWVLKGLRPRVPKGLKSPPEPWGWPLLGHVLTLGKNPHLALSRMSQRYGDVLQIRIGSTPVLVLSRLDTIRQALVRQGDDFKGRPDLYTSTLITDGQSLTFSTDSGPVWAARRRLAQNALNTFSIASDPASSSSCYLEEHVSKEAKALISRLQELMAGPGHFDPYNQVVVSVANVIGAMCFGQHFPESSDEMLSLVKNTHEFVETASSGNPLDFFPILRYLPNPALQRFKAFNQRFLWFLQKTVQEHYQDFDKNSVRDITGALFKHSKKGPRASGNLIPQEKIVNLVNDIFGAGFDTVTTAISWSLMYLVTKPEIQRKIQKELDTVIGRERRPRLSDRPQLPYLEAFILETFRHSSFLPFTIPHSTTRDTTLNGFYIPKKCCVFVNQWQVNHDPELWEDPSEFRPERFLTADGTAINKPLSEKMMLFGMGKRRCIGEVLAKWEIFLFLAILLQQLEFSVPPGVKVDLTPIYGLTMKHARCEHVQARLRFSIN
Source text: as §2

[8] = target: UGT2B7 (Homo sapiens, UniProt P16662); test: UGT inhibition assay, UGT2B7; type: in vitro ADME
Chain of UGT2B7 (P16662 24-529): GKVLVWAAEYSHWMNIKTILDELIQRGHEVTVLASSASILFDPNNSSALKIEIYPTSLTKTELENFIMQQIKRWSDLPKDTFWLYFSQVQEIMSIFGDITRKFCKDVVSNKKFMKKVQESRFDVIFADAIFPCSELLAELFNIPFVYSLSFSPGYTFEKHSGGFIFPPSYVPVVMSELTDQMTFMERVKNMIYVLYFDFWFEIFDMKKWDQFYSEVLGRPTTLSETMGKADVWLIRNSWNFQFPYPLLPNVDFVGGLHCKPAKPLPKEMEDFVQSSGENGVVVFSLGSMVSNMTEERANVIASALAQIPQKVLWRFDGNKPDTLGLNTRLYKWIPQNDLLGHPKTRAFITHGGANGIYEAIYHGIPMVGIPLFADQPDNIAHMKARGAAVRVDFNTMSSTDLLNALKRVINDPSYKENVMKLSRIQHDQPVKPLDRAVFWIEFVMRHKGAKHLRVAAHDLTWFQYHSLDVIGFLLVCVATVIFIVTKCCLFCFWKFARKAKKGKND

[9] = turbidimetric aqueous solubility; type: physicochemical
[10] = in vitro hepatocyte stability assay, dog; type: in vitro ADME; conditions: cryopreserved hepatocytes
Method: 2R,6R-hydroxynorketamine was investigated using an in vitro hepatocyte stability assay, during which 2R,6R-hydroxynorketamine was incubated with cryopreserved hepatocytes from 3 test species.

[11] = tested on: Caco-2
[12] = DSC analysis of compatibility with diluents and capsule shells

Chain of 5-HT1B (P28222 whole entry, species assumed): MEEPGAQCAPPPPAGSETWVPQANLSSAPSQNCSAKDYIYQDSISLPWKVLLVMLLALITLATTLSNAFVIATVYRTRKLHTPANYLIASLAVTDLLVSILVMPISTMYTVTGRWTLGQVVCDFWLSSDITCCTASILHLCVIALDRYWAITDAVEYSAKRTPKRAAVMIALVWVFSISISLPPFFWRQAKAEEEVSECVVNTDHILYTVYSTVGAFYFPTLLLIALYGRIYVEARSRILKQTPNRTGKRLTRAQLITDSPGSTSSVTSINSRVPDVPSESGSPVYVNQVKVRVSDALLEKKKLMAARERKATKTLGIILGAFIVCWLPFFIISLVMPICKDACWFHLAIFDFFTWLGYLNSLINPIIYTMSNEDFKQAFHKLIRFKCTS
Chain of 5-HT2A (P28223 whole entry): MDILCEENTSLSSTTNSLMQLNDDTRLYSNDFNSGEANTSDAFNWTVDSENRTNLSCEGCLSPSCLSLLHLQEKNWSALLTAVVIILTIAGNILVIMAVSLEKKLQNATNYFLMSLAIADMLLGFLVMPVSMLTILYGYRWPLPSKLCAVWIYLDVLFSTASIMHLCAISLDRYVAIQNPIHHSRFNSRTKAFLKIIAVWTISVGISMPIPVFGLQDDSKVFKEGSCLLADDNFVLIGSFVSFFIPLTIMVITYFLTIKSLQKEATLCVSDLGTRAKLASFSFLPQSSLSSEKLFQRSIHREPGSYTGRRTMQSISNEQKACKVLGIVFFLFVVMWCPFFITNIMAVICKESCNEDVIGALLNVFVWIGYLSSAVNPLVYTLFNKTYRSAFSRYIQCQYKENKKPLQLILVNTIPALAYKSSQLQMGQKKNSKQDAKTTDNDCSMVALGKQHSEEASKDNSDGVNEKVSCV

In the case of N[C@@]1(c2ccccc2Cl)CCC[C@@H](O)C1=O [2R,6R-hydroxynorketamine], the “% Inhibition of Control Specific Binding” value [1] is reported as −2%, the “% of Control Specific Binding” value [1] is reported as 102.7% and the “binding to 5HT1B receptor subtype” value [1] is reported as “does not bind”. For the same molecule, the “% Inhibition of Control Specific Binding” value [2] was 0%, the “% of Control Specific Binding” value [2] was 103.8% and the “binding to 5HT2A receptor subtype” value [2] was “does not bind”. For the same molecule, the “% Inhibition of Control Specific Binding” value [3] was 5%, the “% of Control Specific Binding” value [3] was 100.9% and the “binding to 5HT2B receptor subtype” value [3] was “does not bind”. For the same molecule, the “% Inhibition of Control Specific Binding” value [4] was 2%, the “% of Control Specific Binding” value [4] was 102.0% and the “plasma protein binding (PPB), words” value [5] was “low PPB”. The “inhibition of CYP2C8” value [6] was “did not inhibit”, the inhibition at 0.4 µM ([6]; human, 0.4 μM) was 5.63% and the inhibition at 1 µM ([6]; human, 1 μM) was 4.91%. The inhibition at 4 µM ([6]; human, 4 μM) was 12.5%, the inhibition at 10 µM ([6]; human, 10 μM) was 8.33% and the inhibition at 40 µM ([6]; human, 40 μM) was 8.35%. The inhibition at 100 µM ([6]; human, 100 μM) was 2.08%, the IC50 [7] was roughly 100 µM and the inhibition at 0.4 µM ([7]; 0.4 μM) was 7.55%. It also gave an inhibition at 1 µM ([7]; 1 μM) of 8.8%, an inhibition at 4 µM ([7]; 4 μM) of 11.7% and an inhibition at 10 µM ([7]; 10 μM) of 19.3%. For the same molecule, the inhibition at 40 µM ([7]; 40 μM) was 24.8%, the inhibition at 100 µM ([7]; 100 μM) was 48.6% and the “inhibition of UGT2B7” value [8] was “does not inhibit”. For the same molecule, the “estimated precipitation range lower bound” value [9] was 100 µM, the “estimated precipitation range upper bound” value [9] was greater than 100 µM and the “solubility” value [9] was “high solubility”. For the same molecule, the half-life [10] was 4.9 h, the hepatocyte CLint [10] was 4.72 µL/min/1e6 cells and the “substrate of p-gp or Breast Cancer Resistance Protein (BCRP) efflux transporters” value ([11]; Caco-2) was “not a substrate”. The “permeability” value ([11]; Caco-2 permeability assay) was “high”, the “compatibility with hydroxypropyl methylcellulose capsule shells” value [12] was “compatibility” and the “compatibility with dicalcium phosphate” value ([12]; DSC) was “compatibility”. For the same molecule, the “compatibility with microcrystalline cellulose” value ([12]; DSC) was “compatibility” and the “compatibility with lactose monohydrate” value ([12]; DSC, binary mix, 1:2 ratio of API:Excipient) was “incompatible”.
